Reference: US11046722B2, “Sulphated disaccharides for the treatment of neuropathic pain” (BIOIBERICA, S.A.U., priority 2017, dated 2021)

Experiments:
[1] = system: allodynia induced in mice by injecting paclitaxel; assay: Neuropathic pain induced by chemotherapy (paclitaxel): reversal by a single dose after induction; format: in vivo; settings: paclitaxel 2 mg/Kg i.p. for 5 days, day 10, single oral dose, increasing doses 7.5, 15 and 30 mg/Kg, 45 minutes after administration
Description: In Example 3 an experimental model is used in mice based on inducing allodynia by intraperitoneal injection of paclitaxel, as described in the articles by Smith et al., Paclitaxel-induced neuropathic hypersensitivity in mice: responses in 10 inbred mouse strains, Life Sci., 2014, 2593-2604 and Palomano et al., Chemotherapy-evoked painful peripheral neuropathy, Pain Med., 2001, 2 (1), 8-14. In alternative trials, compound Ic was administered after allodynia induction by paclitaxel, or it was administered jointly with this chemotherapy medication. It is observed that compound Ic is effective at both reversing the allodynia induced by paclitaxel (FIG. 4), and preventing the development thereof when coadministered with paclitaxel (FIG. 5).
In this test, groups of mice between 7 and 12 animals were used, to which a daily dose of paclitaxel of 2 mg/Kg was administered by intraperitoneal route for 5 consecutive days (except for the control group). The evaluation of the induced mechanical allodynia was carried out on the 10th day after the first paclitaxel injection, and was quantified by using the von Frey filaments, according to the force threshold necessary to cause the paw withdrawal of the animal. […]

[2] = system: cold allodynia induced in mice by subcutaneous carrageenan injection; assay: Cold allodynia induced by subcutaneous carrageenan injection (acetone test, time spent licking the paw); format: in vivo; settings: carrageenan 1% 50 μl s.c., 60 mg/Kg orally 3.5 hours after injection, acetone test 45 minutes after treatment
Source text: In Example 4 an experimental model is used of cold allodynia induced in mice by subcutaneous carrageenan injection, as described in the article by Choi et al., Behavioral signs of ongoing pain and cold allodynia in a rat model of neuropathic pain, Pain, 1994, 59 (3), 369-376. This trial is based on causing cold allodynia in mice by subcutaneous carrageenan injection in the plantar surface of one of the hind paws of the animals, and subsequently measuring the sensitivity to cold by applying acetone on the plantar surface of both hind paws: the ipsilateral (the same one where the carrageenan was injected) and the contralateral (the unsensitized hind paw). The sensitivity to cold is quantified by measuring the time the animals spent licking the paw for 5 minutes after the application of the acetone. As described in such example, compound Ic is effective in reversing the cold allodynia according to this model (FIG. 6).
In this trial 16 mice were used to which 50 μl of a carrageenan solution at 1% were administered by subcutaneous injection in the plantar surface of one of the hind paws. After 3.5 hours since the injection, 60 mg/Kg of the Ic compound was administered orally to 9 of the animals, while only the vehicle (saline solution) was administered to the remaining 7 (control group). […]

## CO[C@H]1O[C@H](COS(=O)(=O)[O-])[C@@H](OS(=O)(=O)[O-])[C@H](O[C@@H]2O[C@H](C(=O)[O-])[C@@H](O)[C@H](O)[C@H]2O)[C@H]1NC(C)=O.[Na+].[Na+].[Na+] [Compound Ic, methyl 2-acetamido-2-desoxi-3-O-(β-D-glucopyranosyluronic acid)-4,6-di-O-sulfo-α-D-glucopyranoside trisodium salt]
[1]
  reversal of paclitaxel-induced allodynia: reversed the paclitaxel-induced allodynia
[2]
  reversal of cold allodynia (ipsilateral paw): completely reversed
